Assay results: patent US20100292231A1, “Indazole Compounds for Treating Inflammatory Disorders, Demyelinating Disorders and Cancers” (priority 2007, published 2010)

Tests used:
Experiment in all cases: SelectScreen kinase specificity survey
Format in all cases: biochemical
Details in all cases: estimated, abridged dose response curve, read-out: Kinase inhibitory activity EC50
[1] = molecular target: T1, MAPK8 (JNK1) (Homo sapiens, UniProt P45983)
T1 construct: purchased Invitrogen, Inc. (SelectScreen service)
Procedure, shortened: (§1)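 With 100 micromolar ATP present, substrate phosphorylation by each panel kinase was tracked optically against an uninhibited baseline. Graded inhibitor, added in 5 steps, produced a sigmoid curve, and a Hill equation with four parameters was fitted to it to give an estimated EC50.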

[2] = molecular target: T2, MAPK3 (ERK1) (Homo sapiens, UniProt P27361)
T2 construct: purchased Invitrogen, Inc. (SelectScreen service)
Procedure, shortened: as §1

[3] = molecular target: T3, MET (cMet) (Homo sapiens, UniProt P08581)
T3 construct: purchased Invitrogen (SelectScreen platform)
Procedure, shortened: as §1

[4] = molecular target: T4, STK24 (MST3) (Homo sapiens, UniProt Q9Y6E0)
T4 construct: purchased Invitrogen (SelectScreen platform)
Procedure, shortened: as §1

[5] = molecular target: T5, FES (FPS) (Homo sapiens, UniProt P07332)
T5 construct: purchased Invitrogen (SelectScreen service)
Procedure, shortened: as §1

[6] = molecular target: T6, RET Y791F (Homo sapiens, UniProt P07949, Y791F)
T6 construct: purchased Invitrogen (SelectScreen)
Procedure, shortened: as §1

[7] = molecular target: T7, MAP4K4 (HGK, ZC1) (Homo sapiens, UniProt O95819)
T7 construct: purchased Invitrogen (SelectScreen platform)
Procedure, shortened: as §1

[8] = molecular target: T8, LYN B (Homo sapiens, UniProt P07948)
T8 construct: purchased Invitrogen (SelectScreen)
Procedure, shortened: as §1

[9] = molecular target: T9, DAPK3 (ZIPK) (Homo sapiens, UniProt O43293)
T9 construct: purchased Invitrogen, Inc. (SelectScreen platform)
Procedure, shortened: as §1

[10] = molecular target: T10, RPS6KA6 (RSK4) (Homo sapiens, UniProt Q9UK32)
T10 construct: purchased Invitrogen, Inc. (SelectScreen platform)
Procedure, shortened: as §1

[11] = molecular target: T11, FGR (Homo sapiens, UniProt P09769)
T11 construct: purchased Invitrogen (SelectScreen)
Procedure, shortened: as §1

[12] = molecular target: T12, PDGFRA (PDGFR alpha) (Homo sapiens, UniProt P16234)
T12 construct: purchased Invitrogen (SelectScreen platform)
Procedure, shortened: as §1

[13] = molecular target: T13, MAPK12 (p38 gamma) (Homo sapiens, UniProt P53778)
T13 construct: purchased Invitrogen (SelectScreen platform)
Procedure, shortened: as §1

[14] = molecular target: T14, ROS1 (ROS) (Homo sapiens, UniProt P08922)
T14 construct: purchased Invitrogen (SelectScreen)
Procedure, shortened: as §1

[15] = molecular target: T15, SRPK2 (Homo sapiens, UniProt P78362)
T15 construct: purchased Invitrogen, Inc. (SelectScreen service)
Procedure, shortened: as §1

[16] = molecular target: T16, AMPK A2/B1/G1 (Homo sapiens, UniProt P54619+P54646+Q9Y478)
T16 construct: purchased Invitrogen, Inc. (SelectScreen platform)
Procedure, shortened: as §1

[17] = molecular target: T17, ERBB2 (HER2) (Homo sapiens, UniProt P04626)
T17 construct: purchased Invitrogen (SelectScreen service)
Procedure, shortened: as §1

[18] = molecular target: T18, MAPK11 (p38 beta) (Homo sapiens, UniProt Q15759)
T18 construct: purchased Invitrogen (SelectScreen platform)
Procedure, shortened: as §1

[19] = molecular target: T19, JAK2 JH1 JH2 V617F (Homo sapiens, UniProt O60674, V617F)
T19 construct: JAK2 JH1 JH2 V617F; purchased Invitrogen (SelectScreen platform)
Procedure, shortened: as §1

[20] = molecular target: T20, PAK4 (Homo sapiens, UniProt O96013)
T20 construct: purchased Invitrogen (SelectScreen platform)
Procedure, shortened: as §1

T15 sequence (P78362 whole entry): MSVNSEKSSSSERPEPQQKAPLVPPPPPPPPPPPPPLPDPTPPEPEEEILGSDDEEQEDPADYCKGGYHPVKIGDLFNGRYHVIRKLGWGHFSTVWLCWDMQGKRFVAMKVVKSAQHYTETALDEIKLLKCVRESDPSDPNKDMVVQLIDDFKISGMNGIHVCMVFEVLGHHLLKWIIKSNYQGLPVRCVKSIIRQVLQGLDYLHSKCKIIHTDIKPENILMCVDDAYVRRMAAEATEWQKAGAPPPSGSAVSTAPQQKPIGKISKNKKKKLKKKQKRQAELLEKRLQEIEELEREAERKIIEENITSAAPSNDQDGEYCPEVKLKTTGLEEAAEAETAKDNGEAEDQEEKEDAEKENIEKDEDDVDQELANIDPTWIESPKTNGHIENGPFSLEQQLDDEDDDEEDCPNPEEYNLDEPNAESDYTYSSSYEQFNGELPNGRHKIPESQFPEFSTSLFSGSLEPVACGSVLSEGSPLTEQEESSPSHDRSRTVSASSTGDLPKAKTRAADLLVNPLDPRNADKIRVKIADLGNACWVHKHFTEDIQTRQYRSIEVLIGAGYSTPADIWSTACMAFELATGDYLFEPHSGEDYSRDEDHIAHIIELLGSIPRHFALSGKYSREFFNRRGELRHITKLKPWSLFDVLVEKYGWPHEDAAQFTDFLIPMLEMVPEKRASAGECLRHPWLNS
T20 sequence (O96013 whole entry): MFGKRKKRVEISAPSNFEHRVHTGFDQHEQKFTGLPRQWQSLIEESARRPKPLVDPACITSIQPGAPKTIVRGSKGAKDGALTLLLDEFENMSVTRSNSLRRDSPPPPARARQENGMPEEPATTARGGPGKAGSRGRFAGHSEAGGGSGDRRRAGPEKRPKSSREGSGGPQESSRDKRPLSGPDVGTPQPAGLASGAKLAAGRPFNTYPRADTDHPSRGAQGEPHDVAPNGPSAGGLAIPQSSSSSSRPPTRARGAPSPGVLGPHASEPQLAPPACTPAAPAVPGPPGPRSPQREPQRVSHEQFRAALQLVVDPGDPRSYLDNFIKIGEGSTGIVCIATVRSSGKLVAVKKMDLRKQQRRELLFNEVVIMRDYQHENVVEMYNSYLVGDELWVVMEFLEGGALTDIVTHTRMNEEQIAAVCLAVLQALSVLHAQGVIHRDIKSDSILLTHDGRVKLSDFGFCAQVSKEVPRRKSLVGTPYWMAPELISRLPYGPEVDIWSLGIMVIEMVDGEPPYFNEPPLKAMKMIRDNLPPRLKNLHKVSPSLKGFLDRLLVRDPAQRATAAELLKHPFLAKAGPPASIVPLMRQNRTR
T9 sequence (O43293 whole entry): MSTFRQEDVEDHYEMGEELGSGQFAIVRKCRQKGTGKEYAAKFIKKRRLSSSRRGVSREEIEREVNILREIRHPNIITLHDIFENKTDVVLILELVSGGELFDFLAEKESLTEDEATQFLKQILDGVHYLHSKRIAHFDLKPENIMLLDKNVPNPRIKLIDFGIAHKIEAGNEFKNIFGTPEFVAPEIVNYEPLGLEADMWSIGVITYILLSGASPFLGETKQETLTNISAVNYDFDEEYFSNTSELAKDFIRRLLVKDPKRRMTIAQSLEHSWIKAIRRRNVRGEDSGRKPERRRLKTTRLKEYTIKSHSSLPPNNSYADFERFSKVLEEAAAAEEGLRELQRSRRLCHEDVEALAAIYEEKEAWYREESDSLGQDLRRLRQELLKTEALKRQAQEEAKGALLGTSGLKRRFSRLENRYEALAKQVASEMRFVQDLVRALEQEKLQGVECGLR
T10 sequence (Q9UK32 whole entry): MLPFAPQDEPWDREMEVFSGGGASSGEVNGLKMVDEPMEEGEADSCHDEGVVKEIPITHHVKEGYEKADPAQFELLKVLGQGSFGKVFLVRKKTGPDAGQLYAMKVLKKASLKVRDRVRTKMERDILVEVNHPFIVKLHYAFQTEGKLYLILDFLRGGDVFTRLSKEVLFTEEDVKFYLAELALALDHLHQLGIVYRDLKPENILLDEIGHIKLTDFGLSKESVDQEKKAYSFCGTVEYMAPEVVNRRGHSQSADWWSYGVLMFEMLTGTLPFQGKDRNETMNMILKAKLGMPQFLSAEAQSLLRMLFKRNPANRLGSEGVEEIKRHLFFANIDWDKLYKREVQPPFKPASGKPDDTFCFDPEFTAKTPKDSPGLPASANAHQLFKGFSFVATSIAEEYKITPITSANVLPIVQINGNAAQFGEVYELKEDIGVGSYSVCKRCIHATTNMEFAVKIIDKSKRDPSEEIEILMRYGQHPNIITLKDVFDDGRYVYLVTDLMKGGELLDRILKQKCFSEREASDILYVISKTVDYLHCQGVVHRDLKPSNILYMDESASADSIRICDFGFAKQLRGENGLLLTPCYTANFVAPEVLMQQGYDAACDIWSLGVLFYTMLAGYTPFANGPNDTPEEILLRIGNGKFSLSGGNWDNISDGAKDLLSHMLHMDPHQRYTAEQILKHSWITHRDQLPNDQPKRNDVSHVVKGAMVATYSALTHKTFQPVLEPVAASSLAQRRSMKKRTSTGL
T5 sequence (P07332 whole entry): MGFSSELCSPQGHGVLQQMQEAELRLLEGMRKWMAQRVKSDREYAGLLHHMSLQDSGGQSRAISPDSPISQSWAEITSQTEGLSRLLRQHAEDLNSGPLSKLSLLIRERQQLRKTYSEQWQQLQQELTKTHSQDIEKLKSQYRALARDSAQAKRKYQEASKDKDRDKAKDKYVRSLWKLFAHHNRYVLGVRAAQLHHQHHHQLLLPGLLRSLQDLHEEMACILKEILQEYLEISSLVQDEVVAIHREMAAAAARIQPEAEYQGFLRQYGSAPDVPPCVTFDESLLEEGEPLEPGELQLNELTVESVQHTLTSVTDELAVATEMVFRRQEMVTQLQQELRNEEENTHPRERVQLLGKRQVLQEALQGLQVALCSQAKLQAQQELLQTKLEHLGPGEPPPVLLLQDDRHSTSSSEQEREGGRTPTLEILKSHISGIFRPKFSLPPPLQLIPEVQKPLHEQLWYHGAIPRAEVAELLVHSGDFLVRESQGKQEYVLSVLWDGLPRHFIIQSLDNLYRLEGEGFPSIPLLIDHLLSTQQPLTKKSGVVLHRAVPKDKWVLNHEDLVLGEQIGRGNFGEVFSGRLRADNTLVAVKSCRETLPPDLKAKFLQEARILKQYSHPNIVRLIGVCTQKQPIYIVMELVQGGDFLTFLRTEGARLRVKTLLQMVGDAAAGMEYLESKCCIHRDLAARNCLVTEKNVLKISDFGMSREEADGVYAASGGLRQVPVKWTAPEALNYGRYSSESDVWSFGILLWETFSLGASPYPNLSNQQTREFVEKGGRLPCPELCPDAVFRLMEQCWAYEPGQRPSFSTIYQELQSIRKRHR
T11 sequence (P09769 whole entry): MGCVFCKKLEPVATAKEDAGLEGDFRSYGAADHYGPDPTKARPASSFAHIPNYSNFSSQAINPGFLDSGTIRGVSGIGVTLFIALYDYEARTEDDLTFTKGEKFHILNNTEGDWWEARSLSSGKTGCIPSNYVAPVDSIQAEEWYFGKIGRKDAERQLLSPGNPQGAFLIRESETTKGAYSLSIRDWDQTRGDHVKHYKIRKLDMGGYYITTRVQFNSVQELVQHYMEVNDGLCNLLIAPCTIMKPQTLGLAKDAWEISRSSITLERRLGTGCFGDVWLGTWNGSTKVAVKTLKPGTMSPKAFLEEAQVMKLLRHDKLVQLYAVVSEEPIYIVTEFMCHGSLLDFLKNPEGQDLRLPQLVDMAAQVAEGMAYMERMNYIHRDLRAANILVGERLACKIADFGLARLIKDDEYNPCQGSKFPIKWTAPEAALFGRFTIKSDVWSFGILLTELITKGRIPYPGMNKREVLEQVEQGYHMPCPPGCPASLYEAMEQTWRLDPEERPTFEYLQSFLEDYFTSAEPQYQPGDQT
T7 sequence (O95819 whole entry): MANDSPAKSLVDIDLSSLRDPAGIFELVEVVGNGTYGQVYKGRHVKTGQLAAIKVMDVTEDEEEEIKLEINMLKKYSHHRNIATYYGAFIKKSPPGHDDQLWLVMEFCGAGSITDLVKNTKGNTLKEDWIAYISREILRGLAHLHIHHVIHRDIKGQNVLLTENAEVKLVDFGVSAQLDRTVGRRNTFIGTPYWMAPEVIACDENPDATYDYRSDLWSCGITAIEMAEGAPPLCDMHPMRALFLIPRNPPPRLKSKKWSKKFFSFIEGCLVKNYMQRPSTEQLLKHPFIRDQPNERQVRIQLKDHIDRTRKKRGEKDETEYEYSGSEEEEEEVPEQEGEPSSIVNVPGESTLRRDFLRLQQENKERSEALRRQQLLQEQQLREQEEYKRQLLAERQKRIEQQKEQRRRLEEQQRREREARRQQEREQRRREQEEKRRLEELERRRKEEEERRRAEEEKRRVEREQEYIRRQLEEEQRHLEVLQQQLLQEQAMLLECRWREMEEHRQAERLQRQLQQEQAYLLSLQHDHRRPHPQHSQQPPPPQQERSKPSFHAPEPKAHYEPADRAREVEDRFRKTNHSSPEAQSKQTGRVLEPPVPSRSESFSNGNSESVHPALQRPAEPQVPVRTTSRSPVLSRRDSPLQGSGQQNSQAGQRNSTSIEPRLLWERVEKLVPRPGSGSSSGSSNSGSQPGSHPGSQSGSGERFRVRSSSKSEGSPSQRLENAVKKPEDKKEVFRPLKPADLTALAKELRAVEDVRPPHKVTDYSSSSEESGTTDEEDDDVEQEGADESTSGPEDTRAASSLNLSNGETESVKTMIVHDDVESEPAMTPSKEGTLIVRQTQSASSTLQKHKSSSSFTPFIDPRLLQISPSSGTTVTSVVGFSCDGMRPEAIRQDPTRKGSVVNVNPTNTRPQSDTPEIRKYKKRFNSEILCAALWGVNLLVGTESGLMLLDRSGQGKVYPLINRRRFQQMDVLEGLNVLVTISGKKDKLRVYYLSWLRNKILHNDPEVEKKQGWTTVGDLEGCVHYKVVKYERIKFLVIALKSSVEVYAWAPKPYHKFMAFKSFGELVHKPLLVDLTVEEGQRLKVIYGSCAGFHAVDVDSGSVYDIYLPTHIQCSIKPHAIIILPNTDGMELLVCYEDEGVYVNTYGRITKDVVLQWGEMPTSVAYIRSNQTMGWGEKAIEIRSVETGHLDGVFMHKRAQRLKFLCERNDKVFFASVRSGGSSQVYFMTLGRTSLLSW

SMILES | EC50 [1] | EC50 [2] | EC50 [3] | EC50 [4] | EC50 [5] | EC50 [6] | EC50 [7] | EC50 [8] | EC50 [9] | EC50 [10] | EC50 [11] | EC50 [12] | EC50 [13] | EC50 [14] | EC50 [15] | EC50 [16] | EC50 [17] | EC50 [18] | EC50 [19] | EC50 [20]
CCN(CC)CCNc1ccc2ncn3c4ccc(O)cc4c(=O)c1c23 [Symadex, 5-(2-(diethylamino)ethylamino)-8-hydroxy-6H-imidazo[4,5,1-de]acridin-6-one, reference compound] | > 5000 nM | > 5000 nM | > 5000 nM | 733 nM | 1050 nM | 1240 nM | 3130 nM | 812 nM | > 5000 nM | 182 nM | 1270 nM | 1230 nM | > 5000 nM | > 5000 nM | > 5000 nM | 1790 nM | > 5000 nM | > 5000 nM | > 5000 nM | > 5000 nM
CN(C)CCCNc1ccc2ncn3c4ccc5[nH]ncc5c4c(=O)c1c23 [Compound (IV)] | > 5000 nM | > 5000 nM | > 5000 nM | 1040 nM | 2250 nM | 627 nM | > 5000 nM | 426 nM | 973 nM | 655 nM | 367 nM | 562 nM | > 5000 nM | 2660 nM | > 5000 nM | 1570 nM | > 5000 nM | > 5000 nM | > 5000 nM | > 5000 nM
